Reference: EP0219782A2, “Use of angiotensin-converting enzyme inhibitors in the treatment of atherosclerosis, thrombosis and peripheral vascular disease” (HOECHST AKTIENGESELLSCHAFT, priority 1985, dated 1987)

Columns and labels:
Plättchenaggregation [1] = test: Platelet aggregation in platelet-rich rabbit plasma in vitro (light transmission, Born); assay type: cell-based, Kaninchen
From the text: (§1) Plättchenreiches Kaninchenplasma wird wie von Born (Arzneimittel-Forsch. 31, 2012 (1981)) angegeben, gewonnen. Die Plättchenaggregation wird durch Erhöhung des Lichtdurchganges durch eine Küvette, die dieses Plasma enthält, gemessen. Die Plättchenzahl wird durch Verdünnung mit autologem, plättchenarmem Plasma auf 450000/mm^s eingestellt. […] Dagegen wird eine durch 4 pg/ml PGI2 bewirkte Aggregationshemmung gegen Arachidonsäure durch die Verbindung der Formel II in genannten Dosisbereich auf 100% gesteigert.

Plättchenaggregation [2] = test: Acute study: ex vivo platelet aggregation after a single oral dose in conscious rabbits; design: species or system Kaninchen; conditions: single oral dose 1,0 - 10,0 mg/kg, plasma taken after 1 hour
From the text: as §1
Wache Kaninchen erhielten eine einmalige orale Dosis von 1,0 - 10,0 mg/kg der Verbindung der Formel II.
(§2) Nach 1 Stunde werden die Tiere getötet und plättchenreiches Plasma gewonnen. Die Plättchenaggregation wird wie unter A) beschrieben bestimmt.

Plättchenaggregation [3] = test: Chronic study: ex vivo platelet aggregation after 14 days of dosing in conscious rabbits; design: species or system Kaninchen; conditions: 1 mg/kg/d for 14 days; found in all animals
From the text: as §1, §2
Wache Kaninchen erhielten 1 mg/kg/d der Verbindung der Formel II für 14 Tage, dann wurde wie unter 1) beschrieben weiter verfahren.

SMILES: CCOC(=O)[C@H](CCc1ccccc1)N[C@@H](C)C(=O)N1[C@H](C(=O)O)C[C@@H]2CCC[C@@H]21 [Formel II, N-(l-S-Carbethoxy-3-phenyl-propyl)-S-alanyl-cis-endo-2-azabicyclo[3.3.0]octan-3-S-carbonsäure]
- durch PGI2 bewirkte Aggregationshemmung gegen Arachidonsäure, gesteigert auf (Plättchenaggregation [1]; 4 pg/ml PGI2, compound at 0.1-10 pg/ml Plasma): 100%
- Einfluß auf die durch Kollagen ausgelöste Aggregation (Plättchenaggregation [1]; 0.1-10 pg/ml Plasma, stimulus 4 pg/ml Kollagen): keinen Einfluß
- Einfluß auf die durch Arachidonsäure ausgelöste Aggregation (Plättchenaggregation [1]; 0.1-10 pg/ml Plasma, stimulus 0.24 mmol/1 Arachidonsäure): keinen Einfluß
- Einfluß auf die durch ADP ausgelöste Aggregation (Plättchenaggregation [1]; 0.1-10 pg/ml Plasma, stimulus 5 mmol/1 ADP): keinen Einfluß
- Aggregation gegenüber ADP (Plättchenaggregation [2]): vermindert
- Aggregation gegenüber Kollagen (Plättchenaggregation [2]): vermindert
- Potenzierung der PGI2-Wirkung (Plättchenaggregation [2]): ebenfalls beobachtet
- Aggregation gegenüber Arachidonsäure (Plättchenaggregation [2]; effect especially against Arachidonsäure): vermindert
- durch ADP ausgelöste Plättchenaggregation (Plättchenaggregation [3]): ausgeprägte Inhibierung
- durch Arachidonsäure ausgelöste Plättchenaggregation (Plättchenaggregation [3]): ausgeprägte Inhibierung
